Where “and” joins values, the source holds several entries; their conditions need not be identical. Equal entries are not always repeated.

Holding throughout (conditions): incubation time: 72 h
Experiment [1] concerns BT-549. The experiment in a line: normalised viability (% of control), CellTiter-Blue; higher = more viable cells (100 = DMSO, 0 = benzethonium chloride kill control). On the procedure: (§1)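 DSRT, CellTiter-Blue viability, 72 h incubation. Signal is normalised to DMSO and benzethonium chloride controls. Value is the normalised response at dose 1.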
Background: Resazurin is reduced to fluorescent resorufin, in cell work by metabolically active cells.

For experiment [2], the system named is MDA-MB-436. The description is as above. As to the method: as §1
Experiment [3] deals with CAL-148. Described as above. As to the method:
as §1

Experiment [4] concerns HCC1143. The experiment is described as above. As to the method: as §1
Experiment [5] has as its system CAL-51. Described as above. As to the method:
as §1

Experiment [6] relates to MDA-MB-468. The description is as above. As to the method:
as §1

Experiment [7] deals with BT-474. Described as above. On the procedure: as §1
In experiment [8] the test system is HDQ-P1. The experiment is described as above. As to the method:
as §1

Experiment [9] concerns MDA-MB-231. Described as above. On the procedure:
as §1

Experiment [10] concerns HCC1937. Described as above. On the procedure: as §1
In experiment [11] the test system is SK-BR-3. The description is as above. As to the method:
as §1

In experiment [12] the test system is CAL-120. The description is as above. As to the method:
as §1

Experiment [13] has as its system MFM-223. The description is as above. On the procedure: as §1
Experiment [14] has as its system Hs578T. Described as above. On the procedure: as §1
In experiment [15] the test system is MDA-MB-453. Described as above. On the procedure: as §1
Experiment [16] relates to HCC1599. Described as above. On the procedure: as §1
Experiment [17] relates to DU-4475. Described as above. On the procedure: as §1
Experiment [18] relates to CAL-85-1. The description is as above. As to the method:
as §1

In experiment [19] the test system is CAL-148. The experiment in a line: normalised viability (% of control), CellTiter-Blue; higher = more viable cells (about 100 = DMSO control). On the procedure:
(§2)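 DSRT, CellTiter-Blue viability, 72 h incubation. Signal is normalised to DMSO and benzethonium chloride controls. Value is the normalised response at dose 9.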

Experiment [20] concerns CAL-51. Described as above. On the procedure: as §2
Experiment [21] has as its system HDQ-P1. Described as above. As to the method:
as §2

The subject of experiment [22] is MDA-MB-453. The experiment is described as above. On the procedure: as §2
Experiment [23] has as its system DU-4475. Described as above. As to the method: as §2
Experiment [24] relates to CAL-85-1. The description is as above. On the procedure: as §2
For experiment [25], the system named is BT-549. The experiment can be described thus: normalised response (% of control), CellTiter-Glo; higher = more viable cells (100 = DMSO, 0 = benzethonium chloride kill control). A digest of the protocol:
(§3)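 Every value is a normalised signal taken at one concentration of a dilution series. Compound was placed in 384-well plates at 5 concentrations in 10-fold steps over a compound-specific 10,000-fold range, and 20 µl of breast cancer cell suspension was seeded onto it. After 72 h, CellTox Green fluorescence (485/520 nm) was measured first and CellTiter-Glo luminescence second, following 10 min at room temperature. Each plate was scaled to 0.1 % DMSO (100) and a positive kill control (0).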
On the technique in general: ATP-based viability assays read luminescence as a measure of living cells.

The test system of experiment [26] is MDA-MB-436. The experiment is described as above. A digest of the protocol:
as §3

The subject of experiment [27] is CAL-148. The description is as above. A digest of the protocol:
as §3

The test system of experiment [28] is HCC1143. The experiment is described as above. A digest of the protocol: as §3
Experiment [29] relates to CAL-51. Described as above. A digest of the protocol: as §3
The test system of experiment [30] is MDA-MB-468. The description is as above. A digest of the protocol:
as §3

Experiment [31] deals with BT-474. Described as above. A digest of the protocol:
as §3

Experiment [32] deals with HDQ-P1. Described as above. A digest of the protocol:
as §3

In experiment [33] the test system is MDA-MB-231. The description is as above. The method in brief:
as §3

Experiment [34] concerns HCC1937. The experiment is described as above. A digest of the protocol: as §3
The test system of experiment [35] is SK-BR-3. Described as above. The method in brief:
as §3

Experiment [36] deals with CAL-120. Described as above. The method in brief: as §3
For experiment [37], the system named is MFM-223. Described as above. A digest of the protocol:
as §3

Experiment [38] concerns Hs578T. Described as above. A digest of the protocol: as §3
Experiment [39] concerns MCF-10A. The experiment is described as above. The method in brief:
as §3

Experiment [40] has as its system MDA-MB-453. Described as above. A digest of the protocol: as §3
Experiment [41] deals with HCC1599. The description is as above. The method in brief:
as §3

The test system of experiment [42] is DU-4475. The experiment is described as above. A digest of the protocol:
as §3

In experiment [43] the test system is CAL-85-1. The description is as above. A digest of the protocol:
as §3

Regarding `Cc1cc(Nc2cc(CN3CCOCC3)c3nc(C)c(Cc4ccc(Cl)cc4F)n3n2)n[nH]1` (1 nM), the normalised viability in [1] worked out at 97.8%; in experiment [2] it was 87.7%; in [3], 95.6%; in [4] it was 88.6%; in experiment [5] it was 98%; in [6] it was 103%. Besides, the normalised viability in experiment [7] worked out at 92.4%; in experiment [8], 65.2%; in experiment [9], 89.5%; in experiment [10], 85.9%; in experiment [11], 104%; in experiment [12], 86.9%. The normalised viability in experiment [13] turned out to be 93.8%; in experiment [14] it was 107%; in experiment [15], 85.3%; in experiment [16], 110%; in experiment [17], 119%; in experiment [18], 82.1%.

Consider `COC(=O)c1ccc2c(c1)NC(=O)/C2=C(\Nc1ccc(N(C)C(=O)CN2CCN(C)CC2)cc1)c1ccccc1` [BIBF 1120] (10000 nM), for which the normalised viability in [19] was 70.5%; in experiment [20], 42.3%; in experiment [21] it was 56.6%; in experiment [22] it was 2.37%; in [23], 24.8%; in experiment [24] it was 53.9%.

For the compound `Cc1cc(Nc2cc(CN3CCOCC3)c3nc(C)c(Cc4ccc(Cl)cc4F)n3n2)n[nH]1` (10000 nM), the normalised viability in experiment [19] stood at 62.4%; in experiment [20], 12.5%; in experiment [21], 15%; in [22], 36%; in [23], 36.9%; in experiment [24], 33.1%.

For the compound `COC(=O)c1ccc2c(c1)NC(=O)/C2=C(\Nc1ccc(N(C)C(=O)CN2CCN(C)CC2)cc1)c1ccccc1` [BIBF 1120] (1 nM), the normalised viability in experiment [1] turned out to be 119%; in experiment [2], 114%; in experiment [3] it was 105%; in experiment [4], 95.7%; in experiment [5], 99.7%; in [6], 108%. The normalised viability in experiment [7] stood at 124%; in experiment [8], 114%; in experiment [9], 129%; in experiment [10] it was 117%; in [11], 93.3%; in experiment [12], 83.6%. Also, the normalised viability in experiment [13] worked out at 91.8%; in experiment [14], 109%; in [15] it was 101%; in experiment [16], 87.2%; in experiment [17], 112%; in experiment [18], 94.3%.

Take `S=P(N1CC1)(N1CC1)N1CC1` [Thio-TEPA] (10 nM): the normalised viability in experiment [1] stood at 106%; in experiment [2], 99.2%; in experiment [3] it was 102%; in experiment [4], 97.9%; in experiment [5], 94%; in experiment [6], 107%. For the same compound, the normalised viability in [7] was found to be 100%; in experiment [8], 109%; in experiment [9], 94.8%; in experiment [10], 90%; in [11], 92.1%; in experiment [12], 86.2%. Moreover, the normalised viability in experiment [13] turned out to be 101%; in [14], 106%; in experiment [15], 104%; in experiment [16] it was 95.7%; in experiment [17] it was 88.7%; in experiment [18] it was 92.8%.

As to `COc1cc2ncnc(Nc3ccc(F)c(Cl)c3)c2cc1OCCCN1CCOCC1` [Gefitinib] (1 nM), the normalised response in experiment [25] was found to be 94.8%; in experiment [26], 85.5%; in experiment [27], 107%; in experiment [28], 102%; in experiment [29], 93.1%; in experiment [30], 105%. Also, the normalised response in experiment [31] was found to be 97.7%; in experiment [32] it was 94.4%; in experiment [33] it was 97.2%; in experiment [34] it was 91.6%; in experiment [35], 108%; in experiment [36], 97.6%. Moreover, the normalised response in experiment [37] was determined as 105%; in experiment [38], 99%; in experiment [39], 98.8%; in experiment [40], 109%; in experiment [41], 99.2%; in [42], 99.3%. The same compound gave a normalised response in experiment [43] of 101%. In addition, the normalised viability in [1] was 120% and 111%; in experiment [2], 92.2% and 90.9%; in experiment [3], 107% and 106%; in [4] it was 73.7% and 90.5%; in experiment [5] it was 108% and 107%; in experiment [6] it was 90% and 110%. Besides, the normalised viability was 108% and 86.3% in experiment [8]; 94.2% and 90.6% in experiment [9]; 91.6% and 89.4% in experiment [10]; 87.4% and 97.4% in [11]; 77.2% and 85.9% in [12]; 89.3% and 83.4% in experiment [13]. Further, the normalised viability in [15] is 97.3% and 100%; in [16], 85.7% and 96.3%; in experiment [17] it was 104% and 98.6%; in [18] it was 85.3% and 81.5%.

For the origin of these results see the supplement of paper PMC4862054.
